Measured values from patent US20220071933A1, “COMBINATION REMEDY” (SYMRISE AG, priority 2019, published 2022).

What was measured:
[1] = tested on: HGT-1 parietal cell model; assay: Proton secretion assay (intracellular proton index, IPX) in the HGT-1 parietal cell model; format: cell-based; conditions: for IPX [induced by 50 mM AA] D: D stereoisomer; for IPX [induced by 50 mM AA] D / IPX [induced by 50 mM AA] L: 50 mM amino acid, HGT-1 cells, IPX based on log 2 data of intracellular proton concentration, lower IPX = more protons secreted; for IPX [induced by 50 mM AA] L: L stereoisomer; for acid modulating effect (indicator of satiety): among the amino acids listed in Table 1
Text: The value of intracellular proton secretion (IPX) in the parietal cell model HGT-1 (proton secretion assay), which is a marker for gastric secretion, indicates the extent to which the amino acid is able to inhibit proton secretion and is thus indirectly a measure of saturation. The intracellular proton index (IPX) is based on log 2 data of intracellular proton concentration. The lower the IPX, the more protons are secreted. A low IPX is interpreted as stimulation of gastric acid, which in turn is a saturation signal.

[2] = tested on: neurons; conditions: concentration range 0.01 μM to 10 μM (0.003 mg/kg to 3 mg/kg); cited from earlier work
[3] = sensory; cited from earlier work
[4] = tested on: dopamine release; conditions: about 0.03 mg/kg (equivalent to 0.1 μM); cited from earlier work

SMILES | IPX [induced by 50 mM AA] D [1] | IPX [induced by 50 mM AA] L [1] | also measured
CC(N)C(=O)O (stereo not drawn) [ALA] | −0.35 ± 0.08 | 0.87 ± 0.10 | 
N=C(N)NCCC[C@H](N)C(=O)O [ARG, arginine] | −2.37 ± 0.05 | −2.71 ± 0.11 | 
N=C(N)NCCC[C@@H](N)C(=O)O [D-arginine] |  |  | acid modulating effect (indicator of satiety) [1]: best acid modulating effect
CCC(C)C(N)C(=O)O (stereo not drawn) [ILE] | −0.40 ± 0.04 | 0.58 ± 0.07 | 
N=C(N)NCCC[C@H](N)C(=O)O [L-arginine] |  |  | acid modulating effect (indicator of satiety) [1]: best acid modulating effect
CC(C)CC(N)C(=O)O (stereo not drawn) [LEU] | 1.10 ± 0.13 | 1.38 ± 0.14 | 
CCCCCCCCC(=O)NCc1ccc(O)c(OC)c1 [N-nonanoylvanillylamine, N-((4-hydroxy-3-methoxyphenyl-)methyl-)nonanamide] |  |  | stimulation of serotonin release in neurons against the respective control [2]: up to 270%; detection threshold [3]: 0.107 mg/kg; irritation threshold [3]: 0.054 mg/kg; stimulation of dopamine release after acetylcholine stimulation against the respective control [4]: up to 700%
NC(Cc1ccccc1)C(=O)O (stereo not drawn) [PHE] | 1.58 ± 0.10 | 0.50 ± 0.05 | 
O=C(O)C1CCCN1 (stereo not drawn) [PRO] | 0.63 ± 0.09 | 0.44 ± 0.08 | 
NC(CO)C(=O)O (stereo not drawn) [SER] | 0.87 ± 0.10 | 1.40 ± 0.12 | 
CC(O)C(N)C(=O)O (stereo not drawn) [THR] | 1.57 ± 0.05 | 1.43 ± 0.10 | 
NC(Cc1c[nH]c2ccccc12)C(=O)O (stereo not drawn) [TRP] | −0.04 ± 0.04 | −0.66 ± 0.23 | 
CC(C)C(N)C(=O)O (stereo not drawn) [VAL] | −0.44 ± 0.17 | 0.99 ± 0.05 | 
CCCCC/C=C/C=C/C(=O)NCC(C)C [pellitorin, Pellitorin] |  |  | detection threshold [3]: 0.1 mg/kg
